Laboratory results: the NIST ThermoML archive (doi:10.1021/je501026m)
± gives the expanded uncertainty stated by the source.

Settings: Crystal; DTA

Normal melting temperature: 98.00 ± 1 °C
SMILES: C[n+]1ccn(CCOCCn2cc[n+](C)c2)c1.F[P-](F)(F)(F)(F)F.F[P-](F)(F)(F)(F)F
